From patent US20250281424A1 (New York Blood Center, Inc, priority 2020, published 2025)
Values after ≈ are worked out from the molar mass of the structure shown. Read-outs that look alike come from different tables or passages of the source.

Key:
human PF4 = biological target: T1, human PF4 (Homo sapiens, UniProt P02776); assay: Inhibition of PF4 tetramer formation (BS3 cross-linking, SDS-PAGE); assay type: biochemical; conditions: for IC50: read-out: IC50 of PF4 tetramer formation inhibition
T1 construct: PF4 is a 70 amino acid, lysine-rich 7.8 kDa platelet-specific protein; made in house; host or cells: Escherichia coli BL21DE3 pLysS (pT7-7) and/or Drosophila S2 cells
T1 sequence (P02776 32-101): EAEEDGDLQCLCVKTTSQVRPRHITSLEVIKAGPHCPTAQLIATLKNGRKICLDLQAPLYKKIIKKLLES
Summary of the method: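 Recombinant human wild-type PF4 (E. coli-expressed, heparin-purified), 10 μg/ml in PBS, incubated with compound 15 min at 37° C or 60 min at room temperature, then cross-linked with 0.2 mM BS3 for 30 min at room temperature. Reducing 12% SDS-PAGE; bands quantified as % tetramer, trimer, dimer, monomer versus compound-free control.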

[1] = Cytotoxicity HepG2 (MTS reduction); assay type: cell-based; conditions: human, HepG2 cells; read-out: Cytotox HepG2 EC50
[2] = Mouse microsome stability; assay type: in vitro ADME; conditions: for half-life at 0.5 μM: Mouse microsomes, compound conc = 0.5 μM, n = 1, read-out: Mouse microsome stability Half life t1/2; for intrinsic clearance in mouse microsome assay / stability in mouse microsome assay: mouse microsomes
From the text: (§1) Certain exemplified compounds were examined for ADMET (absorption, distribution, metabolism, excretion and toxicity) profiling using conventional assays with the results shown in the Tables 3A-3C below.

P450 2C9 = P450 2C9 (Homo sapiens, UniProt P11712); assay: P450 inhibition 2C9; assay type: in vitro ADME
P450 2C9, sequence (P11712 whole entry): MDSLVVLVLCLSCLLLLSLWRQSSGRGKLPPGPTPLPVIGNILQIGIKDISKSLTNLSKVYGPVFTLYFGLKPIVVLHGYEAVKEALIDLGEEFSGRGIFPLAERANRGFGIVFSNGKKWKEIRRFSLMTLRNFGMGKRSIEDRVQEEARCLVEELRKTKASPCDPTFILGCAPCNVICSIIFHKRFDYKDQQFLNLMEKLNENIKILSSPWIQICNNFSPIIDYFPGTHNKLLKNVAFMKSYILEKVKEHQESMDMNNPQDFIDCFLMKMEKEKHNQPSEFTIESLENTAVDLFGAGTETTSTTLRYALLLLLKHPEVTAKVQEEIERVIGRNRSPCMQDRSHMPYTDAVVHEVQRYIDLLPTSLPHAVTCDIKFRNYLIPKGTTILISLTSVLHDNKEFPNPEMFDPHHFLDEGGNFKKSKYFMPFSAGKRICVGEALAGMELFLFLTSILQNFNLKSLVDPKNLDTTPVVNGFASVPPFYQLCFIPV
Experimental: as §1
(§2) Examples 1 and 3 were evaluated as inhibitors of the five P450s that are the source of most DDI issues. […] The tested compounds meet drug property criteria for IV administration.

P450 2C19 = P450 2C19 (Homo sapiens, UniProt P33261); assay: P450 inhibition 2C19; assay type: in vitro ADME
P450 2C19, sequence (P33261 whole entry): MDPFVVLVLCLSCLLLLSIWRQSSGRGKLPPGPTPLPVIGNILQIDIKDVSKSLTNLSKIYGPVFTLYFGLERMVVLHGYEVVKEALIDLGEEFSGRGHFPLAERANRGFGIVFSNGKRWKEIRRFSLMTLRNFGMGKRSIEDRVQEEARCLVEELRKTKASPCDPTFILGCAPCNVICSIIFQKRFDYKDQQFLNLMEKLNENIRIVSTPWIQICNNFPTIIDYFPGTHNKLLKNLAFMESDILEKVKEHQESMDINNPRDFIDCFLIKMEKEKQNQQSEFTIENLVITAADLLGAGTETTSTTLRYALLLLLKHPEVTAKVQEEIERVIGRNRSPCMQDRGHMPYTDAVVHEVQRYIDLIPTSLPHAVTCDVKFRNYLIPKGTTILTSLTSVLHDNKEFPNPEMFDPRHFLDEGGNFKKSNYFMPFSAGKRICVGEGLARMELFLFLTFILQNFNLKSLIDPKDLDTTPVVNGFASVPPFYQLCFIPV
Experimental: as §1, §2

P450 3A4 (midazolam) = P450 3A4 (midazolam) (Homo sapiens, UniProt P08684); assay: P450 inhibition 3A4 (midazolam); assay type: in vitro ADME
P450 3A4 (midazolam), sequence (P08684 whole entry): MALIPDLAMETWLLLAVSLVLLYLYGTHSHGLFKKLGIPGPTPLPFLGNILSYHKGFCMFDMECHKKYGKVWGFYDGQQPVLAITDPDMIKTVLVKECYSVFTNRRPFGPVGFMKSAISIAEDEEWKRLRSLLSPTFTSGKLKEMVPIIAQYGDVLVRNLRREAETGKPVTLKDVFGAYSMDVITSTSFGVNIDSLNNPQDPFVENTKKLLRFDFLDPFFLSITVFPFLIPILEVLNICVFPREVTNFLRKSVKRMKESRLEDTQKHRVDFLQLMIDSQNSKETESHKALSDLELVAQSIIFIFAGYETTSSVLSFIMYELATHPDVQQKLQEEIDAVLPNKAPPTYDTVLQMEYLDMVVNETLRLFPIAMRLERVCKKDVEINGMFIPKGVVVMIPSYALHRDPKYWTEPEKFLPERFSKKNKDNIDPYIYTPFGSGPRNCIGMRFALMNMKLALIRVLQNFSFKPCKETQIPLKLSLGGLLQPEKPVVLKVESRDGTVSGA
Experimental: as §1, §2

[3] = Kinetic solubility pH 7.4; assay type: physicochemical
From the text: as §1

[4] = Experimentally determined log D; assay type: physicochemical
[5] = pH 7.4, aqueous buffer, kinetic from dmso stock

SMILES | IC50 (human PF4) | EC50 [1] | half-life at 0.5 μM [2] | intrinsic clearance in mouse microsome assay [2] | stability in mouse microsome assay [2] | IC50 (P450 2C9) | inhibition of P450 2C9 (P450 2C9) | IC50 (P450 2C19) | inhibition of P450 2C19 (P450 2C19) | IC50 (P450 3A4 (midazolam)) | inhibition of P450 3A4 midazolam (P450 3A4 (midazolam)) | solubility kinetic ([3]; pH 7.4) | solubility kinetic [3, 5] | logD [4] | inhibition at 100 µM (human PF4; 100 μM inhibitor, read-out: % inhibition of PF4 tetramer formation at single concentration of inhibitor) | inhibition of PF4 tetramerization (human PF4; FIG. 6A) | IC50 (P450 2C9; read-out: P450 Inhibition IC50 2C9) | IC50 (P450 2C19; read-out: P450 Inhibition IC50 2C19) | IC50 (P450 3A4 (midazolam); midazolam, read-out: P450 Inhibition IC50 3A4 (midazolam)) | aqueous solubility [3]
CC(=O)C1C(=O)c2ccc(C(=O)c3ccc4c(c3)C(=O)C(C(C)=O)C4=O)cc2C1=O (centres unmarked) [Example 1, 5,5′-carbonylbis(2-acetyl-1h-indene-1,3(2h)-dione)] | 7 µM | > 1000 µg/mL | > 2.42 h | low intrinsic clearance | excellent stability | 31.9 µM | only moderate inhibition | > 100 µM | no inhibition | > 100 µM | no inhibition | >200 µM | > 200 µM | 0.53 | – | – | – | – | – | –
CCOC(=O)C1C(=O)c2ccc(C(=O)c3ccc4c(c3)C(=O)C(C(=O)OCC)C4=O)cc2C1=O (centres unmarked) [Example 3, diethyl 5,5′-carbonylbis(1,3-dioxo-2,3-dihydro-1h-indene-2-carboxylate)] | 2 µM | > 500 µg/mL | > 2.42 h | low intrinsic clearance | excellent stability | – | only moderate inhibition | – | no inhibition | – | no inhibition | – | 88.2 µM (≈ 40.8 µg/mL) | – | 100% | dose-dependent inhibition | 16.7 µM | > 100 µM | > 100 µM | good aqueous solubility
